Experiments:
Assay in all cases: pIC50, kinobeads binding competition
CDK5 = CDK5 (UniProt Q00535)
Method in brief: (§1)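 Jurkat cells were exposed alive to nine compound concentrations (top 30 μM, 1:4 steps) or vehicle for 60 min at 37 °C and then lysed. In a second format, nine concentrations (top 30 μM, 1:5 steps) were incubated for 60 min at 4 °C with Jurkat lysate or with a 1:1:1:1 lysate mix of HEK293, K-562, HepG2 and placenta. Proteins captured on Kinobeads were digested and quantified by TMT10 LC-MS/MS. pIC50 values were derived from logistic dose-response fits (R drc package) of fold changes relative to vehicle, in biological duplicates.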

EPHB2 = molecular target: T1, EPHB2 (UniProt P29323)
T1 sequence (whole entry): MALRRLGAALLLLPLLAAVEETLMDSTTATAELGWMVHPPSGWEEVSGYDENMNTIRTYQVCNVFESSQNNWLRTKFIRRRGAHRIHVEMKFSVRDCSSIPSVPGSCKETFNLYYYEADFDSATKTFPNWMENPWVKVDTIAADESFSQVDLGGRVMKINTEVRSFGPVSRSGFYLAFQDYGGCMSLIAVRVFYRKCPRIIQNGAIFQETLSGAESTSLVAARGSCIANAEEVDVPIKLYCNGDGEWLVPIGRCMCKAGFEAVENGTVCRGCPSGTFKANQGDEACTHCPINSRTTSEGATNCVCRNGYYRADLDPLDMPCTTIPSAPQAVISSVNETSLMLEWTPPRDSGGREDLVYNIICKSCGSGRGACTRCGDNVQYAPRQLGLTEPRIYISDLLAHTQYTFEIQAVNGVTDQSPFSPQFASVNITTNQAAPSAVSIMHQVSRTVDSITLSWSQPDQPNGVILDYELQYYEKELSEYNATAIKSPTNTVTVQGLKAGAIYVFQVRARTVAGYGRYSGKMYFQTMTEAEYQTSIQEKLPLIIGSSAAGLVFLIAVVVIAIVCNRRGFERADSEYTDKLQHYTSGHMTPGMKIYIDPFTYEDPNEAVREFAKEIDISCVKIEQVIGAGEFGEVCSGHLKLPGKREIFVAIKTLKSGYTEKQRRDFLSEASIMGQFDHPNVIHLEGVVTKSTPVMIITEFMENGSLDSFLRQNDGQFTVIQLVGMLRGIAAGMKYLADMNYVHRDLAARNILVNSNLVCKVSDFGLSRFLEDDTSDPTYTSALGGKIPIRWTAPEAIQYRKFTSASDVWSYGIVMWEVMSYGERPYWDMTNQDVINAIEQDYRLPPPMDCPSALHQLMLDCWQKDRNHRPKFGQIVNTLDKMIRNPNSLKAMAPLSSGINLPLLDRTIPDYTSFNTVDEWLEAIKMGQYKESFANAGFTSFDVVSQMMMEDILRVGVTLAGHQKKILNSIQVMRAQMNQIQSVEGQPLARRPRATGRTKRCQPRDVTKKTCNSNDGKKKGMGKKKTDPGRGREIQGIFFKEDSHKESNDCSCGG
Method in brief: as §1

TAOK1 = molecular target: T2, TAOK1 (UniProt Q7L7X3)
T2 sequence (whole entry): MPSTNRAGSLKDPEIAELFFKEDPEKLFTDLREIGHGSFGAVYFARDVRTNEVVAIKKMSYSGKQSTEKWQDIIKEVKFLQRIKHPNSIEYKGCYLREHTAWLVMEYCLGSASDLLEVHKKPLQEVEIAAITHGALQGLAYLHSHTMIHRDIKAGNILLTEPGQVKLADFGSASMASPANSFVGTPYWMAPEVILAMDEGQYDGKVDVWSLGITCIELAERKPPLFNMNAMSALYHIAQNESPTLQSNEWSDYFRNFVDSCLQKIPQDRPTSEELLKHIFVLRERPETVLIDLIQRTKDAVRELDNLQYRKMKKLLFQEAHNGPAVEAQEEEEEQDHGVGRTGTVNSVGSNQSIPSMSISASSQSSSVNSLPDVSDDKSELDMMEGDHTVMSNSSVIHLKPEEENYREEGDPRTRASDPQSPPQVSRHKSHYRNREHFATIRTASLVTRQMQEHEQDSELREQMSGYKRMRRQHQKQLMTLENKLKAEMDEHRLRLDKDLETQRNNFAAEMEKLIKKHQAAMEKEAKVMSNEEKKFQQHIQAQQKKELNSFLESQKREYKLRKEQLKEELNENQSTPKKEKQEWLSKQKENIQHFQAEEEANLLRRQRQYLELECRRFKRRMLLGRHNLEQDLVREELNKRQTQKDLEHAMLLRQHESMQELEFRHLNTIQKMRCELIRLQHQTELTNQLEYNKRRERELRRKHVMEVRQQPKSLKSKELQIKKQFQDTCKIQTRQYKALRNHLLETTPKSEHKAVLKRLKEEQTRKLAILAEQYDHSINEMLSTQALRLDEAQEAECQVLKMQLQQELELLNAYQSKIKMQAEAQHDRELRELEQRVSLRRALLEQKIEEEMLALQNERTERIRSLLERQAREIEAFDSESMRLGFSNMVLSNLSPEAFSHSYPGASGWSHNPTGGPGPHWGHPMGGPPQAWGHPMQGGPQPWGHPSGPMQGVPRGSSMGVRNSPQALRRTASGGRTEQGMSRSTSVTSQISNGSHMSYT
Method in brief: as §1

TGFBR2 = TGFBR2 (UniProt P37173)
Method in brief: as §1

UniProt Q05655 = molecular target: UniProt Q05655
Method in brief: as §1

UniProt Q16513 = molecular target: UniProt Q16513
Method in brief: as §1

UniProt Q8N4C8 = molecular target: UniProt Q8N4C8
Method in brief: as §1

UniProt Q9NSY1 = molecular target: UniProt Q9NSY1
Method in brief: as §1

CDK5, sequence (Q00535 whole entry, looked up): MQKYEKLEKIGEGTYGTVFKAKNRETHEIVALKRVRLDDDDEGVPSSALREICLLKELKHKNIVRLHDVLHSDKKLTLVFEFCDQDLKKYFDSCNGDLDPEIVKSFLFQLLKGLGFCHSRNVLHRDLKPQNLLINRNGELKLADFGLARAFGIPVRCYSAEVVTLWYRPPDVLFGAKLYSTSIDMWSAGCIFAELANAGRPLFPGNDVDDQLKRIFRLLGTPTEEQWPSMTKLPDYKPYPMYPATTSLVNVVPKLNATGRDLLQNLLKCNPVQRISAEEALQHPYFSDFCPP
UniProt Q05655, sequence (Q05655 whole entry, looked up): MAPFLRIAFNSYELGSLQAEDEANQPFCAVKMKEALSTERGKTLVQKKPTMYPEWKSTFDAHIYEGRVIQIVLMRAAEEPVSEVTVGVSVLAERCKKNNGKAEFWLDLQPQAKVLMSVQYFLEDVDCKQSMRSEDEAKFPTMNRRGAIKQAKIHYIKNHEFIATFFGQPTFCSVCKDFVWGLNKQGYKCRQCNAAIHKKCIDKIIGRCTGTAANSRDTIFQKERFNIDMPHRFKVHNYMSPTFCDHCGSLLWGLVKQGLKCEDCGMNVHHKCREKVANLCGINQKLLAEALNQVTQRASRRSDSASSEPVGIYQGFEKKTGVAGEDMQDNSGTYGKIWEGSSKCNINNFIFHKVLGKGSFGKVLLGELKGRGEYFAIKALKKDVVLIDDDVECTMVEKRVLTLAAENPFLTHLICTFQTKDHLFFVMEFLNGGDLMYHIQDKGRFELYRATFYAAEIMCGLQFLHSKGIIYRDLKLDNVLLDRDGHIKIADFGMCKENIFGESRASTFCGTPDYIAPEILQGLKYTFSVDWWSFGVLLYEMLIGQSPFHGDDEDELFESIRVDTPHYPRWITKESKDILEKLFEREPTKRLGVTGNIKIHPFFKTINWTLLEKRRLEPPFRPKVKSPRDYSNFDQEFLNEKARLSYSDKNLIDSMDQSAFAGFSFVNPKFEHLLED
UniProt Q16513, sequence (Q16513 whole entry, looked up): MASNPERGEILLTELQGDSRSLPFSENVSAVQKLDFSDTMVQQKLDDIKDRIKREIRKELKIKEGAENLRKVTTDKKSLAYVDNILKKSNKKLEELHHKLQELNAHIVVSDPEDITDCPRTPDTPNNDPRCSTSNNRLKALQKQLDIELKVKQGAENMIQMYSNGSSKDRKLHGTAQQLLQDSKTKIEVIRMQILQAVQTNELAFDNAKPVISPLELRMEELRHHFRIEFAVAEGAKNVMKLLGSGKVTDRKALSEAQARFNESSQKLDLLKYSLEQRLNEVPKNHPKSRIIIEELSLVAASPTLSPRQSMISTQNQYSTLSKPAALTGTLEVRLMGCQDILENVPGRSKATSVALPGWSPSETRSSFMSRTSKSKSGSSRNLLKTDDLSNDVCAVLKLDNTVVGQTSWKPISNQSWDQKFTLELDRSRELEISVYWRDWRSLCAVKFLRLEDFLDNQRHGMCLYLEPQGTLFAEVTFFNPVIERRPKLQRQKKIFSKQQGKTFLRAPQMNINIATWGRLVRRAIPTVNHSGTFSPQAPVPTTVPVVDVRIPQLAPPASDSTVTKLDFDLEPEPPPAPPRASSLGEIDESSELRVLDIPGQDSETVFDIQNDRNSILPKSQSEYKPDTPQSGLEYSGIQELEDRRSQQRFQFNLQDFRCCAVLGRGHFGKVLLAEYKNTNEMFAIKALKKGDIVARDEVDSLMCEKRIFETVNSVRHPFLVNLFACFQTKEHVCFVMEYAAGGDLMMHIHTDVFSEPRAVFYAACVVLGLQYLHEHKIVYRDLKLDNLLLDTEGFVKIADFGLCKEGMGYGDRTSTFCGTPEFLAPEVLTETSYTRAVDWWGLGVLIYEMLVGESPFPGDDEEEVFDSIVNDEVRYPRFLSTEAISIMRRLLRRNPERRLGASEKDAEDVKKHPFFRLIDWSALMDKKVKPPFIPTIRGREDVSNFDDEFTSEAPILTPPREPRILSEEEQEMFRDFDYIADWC
UniProt Q9NSY1, sequence (Q9NSY1 whole entry, looked up): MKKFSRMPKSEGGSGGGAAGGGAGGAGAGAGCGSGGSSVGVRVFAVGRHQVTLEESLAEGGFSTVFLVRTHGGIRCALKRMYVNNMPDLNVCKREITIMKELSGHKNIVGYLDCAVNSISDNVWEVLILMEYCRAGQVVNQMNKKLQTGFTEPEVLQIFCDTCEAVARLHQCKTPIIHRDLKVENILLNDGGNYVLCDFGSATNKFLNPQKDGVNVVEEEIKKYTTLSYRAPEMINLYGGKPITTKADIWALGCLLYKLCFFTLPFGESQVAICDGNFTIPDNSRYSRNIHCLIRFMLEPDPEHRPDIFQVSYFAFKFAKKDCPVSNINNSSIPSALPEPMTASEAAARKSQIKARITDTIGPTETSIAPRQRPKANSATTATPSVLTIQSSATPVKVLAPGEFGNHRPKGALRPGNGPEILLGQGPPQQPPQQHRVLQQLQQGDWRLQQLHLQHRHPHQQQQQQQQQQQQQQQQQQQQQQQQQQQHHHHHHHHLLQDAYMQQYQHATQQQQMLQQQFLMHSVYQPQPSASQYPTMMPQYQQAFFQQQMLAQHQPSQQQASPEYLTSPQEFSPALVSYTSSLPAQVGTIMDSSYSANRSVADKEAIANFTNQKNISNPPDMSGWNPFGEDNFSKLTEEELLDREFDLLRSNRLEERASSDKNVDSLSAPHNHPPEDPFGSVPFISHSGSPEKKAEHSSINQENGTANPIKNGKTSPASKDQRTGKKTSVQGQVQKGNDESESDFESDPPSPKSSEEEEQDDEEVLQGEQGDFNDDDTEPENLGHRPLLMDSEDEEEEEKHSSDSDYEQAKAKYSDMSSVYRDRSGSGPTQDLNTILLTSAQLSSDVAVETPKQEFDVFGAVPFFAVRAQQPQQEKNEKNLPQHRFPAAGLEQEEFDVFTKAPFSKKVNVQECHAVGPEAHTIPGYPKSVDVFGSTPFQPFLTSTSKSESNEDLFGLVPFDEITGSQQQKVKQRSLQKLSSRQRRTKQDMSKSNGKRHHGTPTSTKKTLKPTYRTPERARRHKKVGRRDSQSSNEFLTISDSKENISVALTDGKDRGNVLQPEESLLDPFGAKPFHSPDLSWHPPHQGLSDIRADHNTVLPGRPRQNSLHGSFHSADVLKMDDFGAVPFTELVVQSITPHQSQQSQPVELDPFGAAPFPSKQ
TGFBR2, sequence (P37173 whole entry): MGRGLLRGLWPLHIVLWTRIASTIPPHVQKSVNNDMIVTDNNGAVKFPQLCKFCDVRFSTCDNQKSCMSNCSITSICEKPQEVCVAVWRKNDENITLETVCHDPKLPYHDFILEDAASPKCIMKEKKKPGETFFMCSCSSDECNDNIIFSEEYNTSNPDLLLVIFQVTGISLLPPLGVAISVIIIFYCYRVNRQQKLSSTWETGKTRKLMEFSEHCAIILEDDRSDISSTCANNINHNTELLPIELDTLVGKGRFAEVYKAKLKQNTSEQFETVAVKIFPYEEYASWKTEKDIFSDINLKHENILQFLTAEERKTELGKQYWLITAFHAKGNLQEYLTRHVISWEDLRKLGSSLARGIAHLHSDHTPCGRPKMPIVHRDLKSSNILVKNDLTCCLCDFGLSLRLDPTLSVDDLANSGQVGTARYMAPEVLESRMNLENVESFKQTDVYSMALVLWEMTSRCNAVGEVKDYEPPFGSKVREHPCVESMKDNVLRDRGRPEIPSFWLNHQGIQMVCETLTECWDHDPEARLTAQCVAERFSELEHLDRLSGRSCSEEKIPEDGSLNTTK
UniProt Q8N4C8, sequence (Q8N4C8 whole entry, looked up): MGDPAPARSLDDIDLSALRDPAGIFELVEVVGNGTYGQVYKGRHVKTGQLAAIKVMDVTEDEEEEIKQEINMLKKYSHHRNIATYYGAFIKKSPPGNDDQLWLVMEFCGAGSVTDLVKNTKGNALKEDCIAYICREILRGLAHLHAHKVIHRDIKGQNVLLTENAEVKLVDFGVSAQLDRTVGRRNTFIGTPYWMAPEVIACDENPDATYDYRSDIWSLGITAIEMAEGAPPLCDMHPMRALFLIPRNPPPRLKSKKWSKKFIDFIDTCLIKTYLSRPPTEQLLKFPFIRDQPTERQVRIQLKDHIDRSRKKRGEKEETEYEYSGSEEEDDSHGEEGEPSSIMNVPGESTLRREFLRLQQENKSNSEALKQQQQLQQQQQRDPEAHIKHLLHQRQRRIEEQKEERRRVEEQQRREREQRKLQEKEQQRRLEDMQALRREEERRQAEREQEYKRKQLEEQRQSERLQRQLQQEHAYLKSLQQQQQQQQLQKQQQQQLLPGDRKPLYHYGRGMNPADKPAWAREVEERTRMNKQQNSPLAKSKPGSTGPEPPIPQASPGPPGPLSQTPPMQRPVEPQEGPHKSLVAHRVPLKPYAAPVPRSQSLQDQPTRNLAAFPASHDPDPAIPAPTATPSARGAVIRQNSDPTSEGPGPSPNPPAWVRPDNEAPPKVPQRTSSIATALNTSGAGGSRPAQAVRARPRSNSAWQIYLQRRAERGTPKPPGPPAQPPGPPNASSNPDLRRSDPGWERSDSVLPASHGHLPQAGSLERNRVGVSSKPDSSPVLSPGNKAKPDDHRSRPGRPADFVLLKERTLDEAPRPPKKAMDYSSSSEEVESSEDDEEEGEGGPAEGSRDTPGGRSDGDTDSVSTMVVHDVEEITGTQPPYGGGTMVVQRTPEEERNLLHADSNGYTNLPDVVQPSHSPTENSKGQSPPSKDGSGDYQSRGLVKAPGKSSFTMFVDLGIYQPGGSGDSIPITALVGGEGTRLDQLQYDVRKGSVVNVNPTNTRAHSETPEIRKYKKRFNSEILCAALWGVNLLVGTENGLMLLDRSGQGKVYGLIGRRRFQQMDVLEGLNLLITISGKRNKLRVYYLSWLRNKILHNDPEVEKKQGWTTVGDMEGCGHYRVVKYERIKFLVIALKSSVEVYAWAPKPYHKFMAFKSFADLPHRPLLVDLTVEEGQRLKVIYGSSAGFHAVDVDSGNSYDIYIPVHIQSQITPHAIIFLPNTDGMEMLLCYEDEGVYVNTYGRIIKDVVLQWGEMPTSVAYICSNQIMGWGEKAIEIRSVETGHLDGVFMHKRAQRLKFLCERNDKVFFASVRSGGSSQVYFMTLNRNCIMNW

`C#CCNC(=O)c1cc(Nc2cc(C3CC3)[nH]n2)nc(N2CCN(Cc3ccc(S(=O)(=O)F)cc3)CC2)n1` gave a pIC50 (CDK5; cell material: Jurkat cells) of 6.74, a pIC50 (CDK5; cell material: Jurkat lysate) of 5.96 and a pIC50 (CDK5; cell material: Lysate mix) of 6.48. It also gave a pIC50 (EPHB2; cell material: Jurkat cells) of less than 4.52, a pIC50 (EPHB2; cell material: Jurkat lysate) of less than 4.52 and a pIC50 (EPHB2; cell material: Lysate mix) of less than 4.52. It also gave a pIC50 (TAOK1; cell material: Jurkat cells) of 5.6, a pIC50 (TAOK1; cell material: Jurkat lysate) of less than 4.52 and a pIC50 (TAOK1; cell material: Lysate mix) of less than 4.52. For the same compound, the pIC50 (TGFBR2; cell material: Jurkat cells) was 5.5, the pIC50 (TGFBR2; cell material: Jurkat lysate) was less than 4.52 and the pIC50 (TGFBR2; cell material: Lysate mix) was less than 4.52. It also gave a pIC50 (UniProt Q05655; cell material: Jurkat cells) of 5.53, a pIC50 (UniProt Q05655; cell material: Jurkat lysate) of less than 4.52 and a pIC50 (UniProt Q05655; cell material: Lysate mix) of less than 4.52. For the same compound, the pIC50 (UniProt Q16513; cell material: Jurkat cells) was 5.32, the pIC50 (UniProt Q16513; cell material: Jurkat lysate) was less than 4.52 and the pIC50 (UniProt Q16513; cell material: Lysate mix) was less than 4.52. The pIC50 (UniProt Q8N4C8; cell material: Jurkat cells) was 5.72, the pIC50 (UniProt Q8N4C8; cell material: Jurkat lysate) was less than 4.52 and the pIC50 (UniProt Q8N4C8; cell material: Lysate mix) was less than 4.52. For the same compound, the pIC50 (UniProt Q9NSY1; cell material: Jurkat cells) was 5.24, the pIC50 (UniProt Q9NSY1; cell material: Jurkat lysate) was less than 4.52 and the pIC50 (UniProt Q9NSY1; cell material: Lysate mix) was less than 4.52.
With `C#CCNC(=O)c1cc(Nc2cc(C)[nH]n2)nc(N2CCN(Cc3ccc(S(=O)(=O)F)cc3)CC2)n1` the pIC50 (CDK5; cell material: Lysate mix) was 6.02, the pIC50 (EPHB2; cell material: Lysate mix) was less than 4.52 and the pIC50 (TAOK1; cell material: Lysate mix) was less than 4.52. It also gave a pIC50 (TGFBR2; cell material: Lysate mix) of less than 4.52, a pIC50 (UniProt Q05655; cell material: Lysate mix) of less than 4.52 and a pIC50 (UniProt Q16513; cell material: Lysate mix) of less than 4.52. It also gave a pIC50 (UniProt Q8N4C8; cell material: Lysate mix) of less than 4.52 and a pIC50 (UniProt Q9NSY1; cell material: Lysate mix) of less than 4.52.
With `Cc1cc(Nc2cc(C(=O)NCCNC(=O)OC3CC/C=C/CCC3)nc(N3CCN(Cc4ccc(S(=O)(=O)F)cc4)CC3)n2)n[nH]1` (centres undefined) the pIC50 (CDK5; cell material: Lysate mix) was 4.92, the pIC50 (EPHB2; cell material: Lysate mix) was less than 4.52 and the pIC50 (TAOK1; cell material: Lysate mix) was 5.87. The pIC50 (TGFBR2; cell material: Lysate mix) was less than 4.52, the pIC50 (UniProt Q05655; cell material: Lysate mix) was less than 4.52 and the pIC50 (UniProt Q16513; cell material: Lysate mix) was less than 4.52. The pIC50 (UniProt Q8N4C8; cell material: Lysate mix) was less than 4.52 and the pIC50 (UniProt Q9NSY1; cell material: Lysate mix) was less than 4.52.
Compound `O=C(NCCNC(=O)c1cc(Nc2cc(C3CC3)[nH]n2)nc(N2CCN(Cc3ccc(S(=O)(=O)F)cc3)CC2)n1)OC1CC/C=C/CCC1` (centres undefined) has a pIC50 (CDK5; cell material: Jurkat cells) of 6.34, a pIC50 (CDK5; cell material: Jurkat lysate) of 5.1 and a pIC50 (CDK5; cell material: Lysate mix) of 5.12. It also gave a pIC50 (EPHB2; cell material: Jurkat cells) of less than 4.52, a pIC50 (EPHB2; cell material: Jurkat lysate) of less than 4.52 and a pIC50 (EPHB2; cell material: Lysate mix) of less than 4.52. For the same compound, the pIC50 (TAOK1; cell material: Jurkat cells) was 5.96, the pIC50 (TAOK1; cell material: Jurkat lysate) was 5.65 and the pIC50 (TAOK1; cell material: Lysate mix) was 6.1. The pIC50 (TGFBR2; cell material: Jurkat cells) was less than 4.52, the pIC50 (TGFBR2; cell material: Jurkat lysate) was less than 4.52 and the pIC50 (TGFBR2; cell material: Lysate mix) was less than 4.52. It also gave a pIC50 (UniProt Q05655; cell material: Jurkat cells) of 5.19, a pIC50 (UniProt Q05655; cell material: Jurkat lysate) of less than 4.52 and a pIC50 (UniProt Q05655; cell material: Lysate mix) of less than 4.52. For the same compound, the pIC50 (UniProt Q16513; cell material: Jurkat lysate) was less than 4.52, the pIC50 (UniProt Q16513; cell material: Lysate mix) was less than 4.52 and the pIC50 (UniProt Q8N4C8; cell material: Jurkat cells) was 5.12. The pIC50 (UniProt Q8N4C8; cell material: Jurkat lysate) was less than 4.52, the pIC50 (UniProt Q8N4C8; cell material: Lysate mix) was less than 4.52 and the pIC50 (UniProt Q9NSY1; cell material: Jurkat cells) was less than 4.52. It also gave a pIC50 (UniProt Q9NSY1; cell material: Jurkat lysate) of less than 4.52 and a pIC50 (UniProt Q9NSY1; cell material: Lysate mix) of less than 4.52.
For `CCNC(=O)c1cc(Nc2cc(C)[nH]n2)nc(N2CCN(Cc3ccc(S(=O)(=O)F)cc3)CC2)n1`, the pIC50 (CDK5; cell material: Lysate mix) was 5.93, the pIC50 (EPHB2; cell material: Lysate mix) was less than 4.52 and the pIC50 (TAOK1; cell material: Lysate mix) was less than 4.52. It also gave a pIC50 (TGFBR2; cell material: Lysate mix) of less than 4.52, a pIC50 (UniProt Q05655; cell material: Lysate mix) of less than 4.52 and a pIC50 (UniProt Q16513; cell material: Lysate mix) of less than 4.52. It also gave a pIC50 (UniProt Q8N4C8; cell material: Lysate mix) of less than 4.52 and a pIC50 (UniProt Q9NSY1; cell material: Lysate mix) of less than 4.52.
In the case of `CCNC(=O)c1cc(Nc2cc(C3CC3)[nH]n2)nc(N2CCN(Cc3ccc(S(=O)(=O)F)cc3)CC2)n1`, the pIC50 (CDK5; cell material: Lysate mix) is reported as 6.06, the pIC50 (EPHB2; cell material: Lysate mix) is reported as less than 4.52 and the pIC50 (TAOK1; cell material: Lysate mix) is reported as less than 4.52. It also gave a pIC50 (TGFBR2; cell material: Lysate mix) of less than 4.52, a pIC50 (UniProt Q05655; cell material: Lysate mix) of less than 4.52 and a pIC50 (UniProt Q16513; cell material: Lysate mix) of less than 4.52. The pIC50 (UniProt Q8N4C8; cell material: Lysate mix) was less than 4.52 and the pIC50 (UniProt Q9NSY1; cell material: Lysate mix) was less than 4.52.
